As a reminder, the EC50 is the concentration giving half of the maximal effect.

The values that follow come from BindingDB's records for doi:10.1021/acs.jmedchem.6b00709 (University of Berne, 2016).

The assay can be described thus: Inhibition of Aurora A kinase in human HeLa Kyoto cells assessed as induction of defective chromosome alignment during metaphase incubated for 20 hrs.

On to `CCc1ccc(/N=C2\S/C(=C\c3ccnc(Nc4ccc(C(=O)O)cn4)c3)C(=O)N2C)cc1`, for which the EC50 was 6 µM.
